Measurements published in ChEMBL document CHEMBL3608293, “Novel Pyrazine Amide Compounds” (ACS Med Chem Lett, 2015).

The compounds below were run against T1, Epithelial sodium channel subunit alpha (Mus musculus, UniProt Q61180) (assay: Inhibition of ENaC in mouse M1 assessed as effect on trans epithelial electrical resistance by measuring short circuit currents by voltage-clamp based Ussing chamber assay).
T1 sequence (Q61180 whole entry): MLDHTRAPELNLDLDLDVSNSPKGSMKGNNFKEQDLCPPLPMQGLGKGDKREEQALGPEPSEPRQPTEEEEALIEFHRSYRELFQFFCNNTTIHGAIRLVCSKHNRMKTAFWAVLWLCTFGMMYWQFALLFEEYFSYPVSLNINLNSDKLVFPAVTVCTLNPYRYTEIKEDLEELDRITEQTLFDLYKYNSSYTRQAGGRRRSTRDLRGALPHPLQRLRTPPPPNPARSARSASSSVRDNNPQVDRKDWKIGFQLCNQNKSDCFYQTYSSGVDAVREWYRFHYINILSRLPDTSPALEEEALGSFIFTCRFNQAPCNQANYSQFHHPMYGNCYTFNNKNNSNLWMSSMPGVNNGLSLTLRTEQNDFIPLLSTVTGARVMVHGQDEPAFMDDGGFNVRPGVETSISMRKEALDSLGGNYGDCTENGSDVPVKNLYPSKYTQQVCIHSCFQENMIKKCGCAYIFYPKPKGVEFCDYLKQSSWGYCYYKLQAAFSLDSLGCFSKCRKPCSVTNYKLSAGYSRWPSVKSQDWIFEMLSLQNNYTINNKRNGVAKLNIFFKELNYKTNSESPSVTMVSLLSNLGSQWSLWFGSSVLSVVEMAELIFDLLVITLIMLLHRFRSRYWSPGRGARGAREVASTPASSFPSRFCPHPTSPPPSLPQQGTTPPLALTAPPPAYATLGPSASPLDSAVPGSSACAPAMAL

Row | Compound | IC50 [nM]
1 | COc1ccc(CCC[N@@+]2(C)CCC[C@H](NC(=O)c3nc(Cl)c(N)nc3N)C2)cc1 | 70
2 | COc1ccc(CCC[N+]2(CCCc3ccc(C(=O)NCCCN(C)C)cc3)CCCC(NC(=O)c3nc(Cl)c(N)nc3N)C2)cc1 (stereo unspecified) | 20
3 | COc1ccc(CCC[N+]2(CCCc3ccccc3)CCCC(NC(=O)c3nc(Cl)c(N)nc3N)C2)cc1 (stereo unspecified) | 6
4 | Nc1nc(N)c(C(=O)N[C@H]2CCC[N+](CCCc3ccc(OCC(=O)NCCCO)cc3)(CCCc3ccc(OCC(=O)NCCCO)cc3)C2)nc1Cl | 13

Continued by falling IC50, values first:

Row | IC50 [nM] | Compound
5 | 9 | Nc1nc(N)c(C(=O)N[C@H]2CCC[N+](CCCc3ccc(OCC(=O)NCCn4ccnc4)cc3)(CCCc3ccc(OCC(=O)NCCn4ccnc4)cc3)C2)nc1Cl
6 | 6 | Nc1nc(N)c(C(=O)N[C@H]2CCC[N+](CCCc3ccc(OCC(=O)NCCc4ccccn4)cc3)(CCCc3ccc(OCC(=O)NCCc4ccccn4)cc3)C2)nc1Cl
